In patent publication US12606529B2, “Sulfur and amide tropolone inhibitors of nucleotidyl transferases and uses therefor” (Saint Louis University, priority 2019, dated 2026):
In brackets after ≈: the same amount, converted by molar mass. Like-named read-outs stand apart in the source and are kept apart here.

Legend:
in vitro = conditions: human, HepDES19 cells
Experimental: Cells used for toxicity and HBV studies. […] Cells were maintained in Dulbecco's modified Eagle's medium (DMEM)/F12 media supplemented with 10% fetal bovine serum (FBS) and 1% penicillin/streptomycin (P/S) with 1 μg/mL tetracycline. Synchronized expression of HBV pgRNA was induced by removing tetracycline from the culture medium.
Cytotoxicity Assays. Qualitative assessments of cytotoxicity were done visually by inspecting the cells in the primary screening assays. […] The next day the compounds were added at 0.78 to 100 μM in a final concentration of 1% (v/v) DMSO, and the cells were incubated for 24 hours under conditions identical to those employed for the viral replication inhibition assays. Mitochondrial toxicity was measured by incubating the cells with 0.25 mg/mL thiazolyl blue tetrazolium bromide (MTT, SigmaAldrich Chemical Co.), the cultures were incubated for 60 mM, metabolites were solubilized in acidic isopropanol, and absorbance was read at 570 nm. CC50 values were calculated by non-linear curve fitting using GraphPad Prism using the three-parameter variable-response log(inhibitor)-versus-response algorithm with the bottom value set to zero.

human RNaseH1 = target: T1, human RNaseH1 (Homo sapiens, UniProt O60930); assay: Biochemical inhibition of human RNaseH1 activity
T1 sequence (O60930 1-286): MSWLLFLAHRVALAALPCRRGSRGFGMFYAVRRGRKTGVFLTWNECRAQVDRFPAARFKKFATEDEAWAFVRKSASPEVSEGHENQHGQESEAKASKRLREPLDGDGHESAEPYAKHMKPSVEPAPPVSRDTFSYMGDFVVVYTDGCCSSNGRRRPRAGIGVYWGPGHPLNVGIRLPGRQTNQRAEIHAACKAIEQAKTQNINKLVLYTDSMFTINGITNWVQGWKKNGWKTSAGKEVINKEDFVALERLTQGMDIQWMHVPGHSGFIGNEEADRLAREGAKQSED
Experimental: Biochemical inhibition of human RNaseH1 activity. Quantitative inhibition of the human RNaseH1 in the biochemical assays was assessed using a molecular beacon assay as described previously (Edwards et al., 2017). Recombinant human RNaseH 1 (0.3 μg) was incubated with 100 nM RNA:DNA substrate, 50 mM HEPES pH 8.0, 100 mM NaCl, 2 mM Tris(2-carboxyethyl)phosphine hydrochloride (TCEP), 0.05% Tween20, 5 units of RNaseOut, test compounds (0 to 500 μM), and 5% DMSO in a 100 μL reaction volume. The substrate was formed by annealing a complementary RNA oligonucleotide to a hairpin DNA oligonucleotide to hold the hairpin DNA oligonucleotide in an open conformation. The DNA oligonucleotide has a 5′ fluorescein reporter and a 3′ black hole quencher. When the RNA is degraded from the substrate the DNA oligonucleotide closes to form a hairpin structure, decreasing in signal intensity. Reactions were initiated with 5 mM MgCl2 and fluorescence was read using a Synergy HTS multi-mode plate reader at 37° C. Alternatively, the HBV RNaseH version used was MBP-HRHgtCΔ5, a genotype C isolate which lacks the C-terminal 35 amino acids of the HBV RNaseH domain that are predicted to be unstructured. Quantitative inhibition of the human RNaseH1 in biochemical assays was assessed using a FRET-based RNaseH assay under conditions previously reported for an RNaseH molecular beacon assay (Edwards et al., 2017). […] Cleavage of the RNA strand released the fluorescein from quenching, increasing fluorescence. Reactions were monitored for 90 min at 37° C. in a plate reader and initial reaction rates were calculated. Reactions contained escalating concentrations of the compounds.

HBV replication = HBV replication inhibition in HepDES19 cells (strand-preferential qPCR); conditions: for EC50: Hepatitis B virus
Experimental: Cells used for toxicity and HBV studies.
HBV replication inhibition studies. HepDES19 cells were seeded in 96-well plates at 4×10^4 cells per well in the absence of tetracycline. Test compounds in a final DMSO concentration of 1% were applied to cells 48 hours after induction of HBV replication and cells were incubated with compounds for 72 hours. Cells were washed in 200 μL of phosphate buffered saline (PBS) and lysed in 150 μL of core lysis buffer (10 mM Tris pH 7.4, 1% Tween20, 150 mM NaCl). Cells were incubated at room temperate on an orbital shaker at 350 rpm for 40 minutes. Cell lysate was transferred to a 96 well polymerase chain reaction (PCR) plate and centrifuged at 3300×g for 5 minutes. The supernatant (50 μL) from the cell lysate was transferred to a 96-well PCR plate and mixed with 20 units of micrococcal nuclease and 100 μM CaCl2. The lysate was incubated for 1 hour at 37° C., and then the nuclease was inactivated at 70° C. for ten minutes. Qiagen protease (0.005 Anson units) was added to the lysate and the mixture was incubated overnight. Qiagen protease was then inactivated at 95° C. for ten minutes.
The crude lysate was used as the template for strand-preferential quantitative polymerase chain reaction (q-PCR) analysis. Quantitative PCR was performed with 40 cycles of 95° C. for 15 s and 60° C. for 1 minute employing the Kappa Probe Force universal PCR master mix.

HSV-1 = assay: Anti-HSV-1 replication assay (Vero cells, plaque titer); assay type: cell-based, herpes simplex virus 1; conditions: for log reduction at 5 µM / log reduction at 1 µM / log reduction at 0.33 µM: Human alphaherpesvirus 1, Vero, values separated by / are repeats; for log reduction at 5 µM: compound at 5 μM; for log reduction at 1 µM: compound at 1 μM; for log reduction at 0.33 µM: compound at 0.33 μM, read-out: HSV-1 suppression 0.33 μM
[1] = test system: C. neoformans var. grubii, KN99; assay: C. neoformans growth inhibition assay (limiting dilution); assay type: cell-based, Cryptococcus neoformans; conditions: Cryptococcus neoformans
Experimental: Cell types used for C. neoformans studies. All inhibition assays were performed with C. neoformans var. grubii, KN99 (serotype A, MAT). Two clinical strains of C. neoformans var. grubii, serotype A, were provided by Tamara Doering and Andre Spec. […] Cells were diluted to OD650 0.001 in YNB-02 02 (0.67% yeast nitrogen base, 0.2% dextrose, pH 7.0 with 50 mM MOPs)+1% DMSO prior to addition to the plates for the inhibition assays.
C. neoformans growth inhibition assays. Compounds were tested in a limiting dilution assay with a starting optical density (at 650 nm) of 0.001 in YNB-02 plus 1% DMSO. Cells plus compound were incubated in 96-well clear round bottom plates covered with a Breath-easy® membrane without shaking for 48 hours at 35° C. Before measuring cell density, plates were shaken on a microtiter plate shaker at 900 rpm for 3 minutes to resuspend cells and optical density was measured at 650 nm. […] Each assay was done in triplicate and all values are the average of two or more independent assays. The data are presented as the average cell density as a percent of DMSO-only treated cells. MICs are reported as the minimal concentration needed to inhibit 80% of C. neoformans growth relative to vehicle-treated controls.

[2] = Table 2 amides, read-out: HuRH1 IC50
[3] = HepDES19, 72 h, Table 2 amides, HBV replication, HepDES19 cells, plus-polarity DNA, 72 h
[4] = Table 2 amides, read-out: HSV-1 suppression 5 μM
[5] = 48 h, Table 2 amides, 48 h, 35° C., tested 0.19 to 50 μM, read-out: C. neoformans MIC80
[6] = HepDES19, read-out: EC50 against HBV replication
[7] = CC50, Table 3 sulfur compounds, MTT
[8] = HepDES19, read-out: HBV EC50, Table 3 sulfur compounds, HBV replication, HepDES19 cells
[9] = Table 3 sulfur compounds, read-out: HSV-1 suppression 1 μM
[10] = Table 3 sulfur compounds, read-out: HSV-1 suppression 5 μM
[11] = 48 h, Table 3 sulfur compounds, 48 h, 35° C., read-out: C. neoformans MIC80
[12] = Table 3 sulfur compounds, read-out: Hu RNaseH IC50
[13] = read-out: MIC80 against C. neoformans

SMILES	CC50 at 24 h (in vitro; CC50 (μM), Table 2 amides, MTT) [µM]	IC50 (human RNaseH1; [2]) [µM]	EC50 (HBV replication; [3]) [µM]	MIC80 [1, 5] [µM]	CC50 at 24 h (in vitro; [7]) [µM]	EC50 (HBV replication; [8]) [µM]	log reduction at 1 µM (HSV-1; [9])	log reduction at 5 µM (HSV-1; [10])	MIC80 [1, 11] [µM]	also measured
C#CCCC1(CCNC(=O)c2cc(O)c(=O)c(O)cc2C)N=N1 [compound 384]	17.6 ± 8.9	111 ± 48.8	0.66 ± 0.7	3.5 (≈ 1.1 µg/mL)	–	–	–	–	–	log reduction at 5 µM (HSV-1; [4]): 0.77
Cc1cc(O)c(=O)c(O)cc1C(=O)N1CCCCC1 [compound 390]	24.9 ± 11.6	106 ± 64.6	0.31 ± 0.1	22 (≈ 5.79 µg/mL)	–	–	–	–	–	CC50 at 24 h (in vitro; CC50): > 20 µM; EC50 (HBV replication; [6]): 0.31 µM; log reduction at 5 µM (HSV-1; [4]): 0.52
CCCCS(=O)(=O)c1ccc(S(=O)(=O)CCCC)c(O)c(=O)c1O [compound 536]	–	–	–	–	100	50	0.09	0.35	50 (≈ 18.9 µg/mL)	CC50 at 24 h (in vitro; CC50): 100 µM
CC(C)S(=O)(=O)c1cccc(O)c(=O)c1O [compound 537]	–	–	–	–	20.6	0.51	0.25	–	50 (≈ 12.2 µg/mL)	Therapeutic index (CC50/EC50) for HBV (TI, SI) (HBV replication): 41
CC(C)S(=O)(=O)c1ccc(S(=O)(=O)C(C)C)c(O)c(=O)c1O [compound 538]	–	–	–	–	100	50	0.74	0.21	50 (≈ 17.5 µg/mL)	CC50 at 24 h (in vitro; CC50): 100 µM
O=c1c(O)cccc(Sc2ccccc2)c1O [compound 691]	–	–	–	–	19.5	43.6	0.72	5.69	1 (≈ 0.246 µg/mL)	IC50 (human RNaseH1; [12]): 31.9 µM; Reduction of HSV-1 titers / suppression of HSV-1 replication at 5 μM (HSV-1; 5 μM, plaque forming units (PFU)/ml): > 3 log10
CCCCSc1cccc(O)c(=O)c1O [compound 693]	–	–	–	–	13.5	47.3	0.25	5.64	0.9 (≈ 0.204 µg/mL)	MIC80 [1, 13]: ≤ 1 µM
CCCCSc1ccc(SCCCC)c(O)c(=O)c1O [compound 694]	–	–	–	–	1.8	12.6	4.85	5.86	2 (≈ 0.629 µg/mL)	IC50 (human RNaseH1; [12]): 127 µM; Therapeutic index (CC50/EC50) for HBV (TI, SI) (HBV replication): 0.14
CC(C)Sc1cccc(O)c(=O)c1O [compound 695]	–	–	–	–	21.1	26.8	-0.23	2.28	1.6 (≈ 0.34 µg/mL)	–
CC(C)Sc1ccc(SC(C)C)c(O)c(=O)c1O [compound 696]	–	–	–	–	9.3	12.7	0.08	5.82	1.4 (≈ 0.401 µg/mL)	log reduction at 0.33 µM (HSV-1; Table 3 sulfur compounds): -0.06
Cc1ccc(S(=O)(=O)c2cccc(O)c(=O)c2O)cc1 [compound 697]	–	–	–	–	35.3	49.1	–	0.01	49 (≈ 14.3 µg/mL)	–
O=c1c(O)cccc(S(=O)(=O)c2cccc3ccccc23)c1O [compound 698]	–	–	–	–	14.8	6.18	-0.35	4.85	49 (≈ 16.1 µg/mL)	IC50 (human RNaseH1; [12]): 234 µM; log reduction at 0.33 µM (HSV-1; Table 3 sulfur compounds): -0.31
CCCCCCS(=O)(=O)c1cccc(O)c(=O)c1O [compound 699]	–	–	–	–	13.1	6.83	0.2	4.39	10 (≈ 2.86 µg/mL)	–
CCCCCCS(=O)(=O)c1ccc(S(=O)(=O)CCCCCC)c(O)c(=O)c1O [compound 700]	–	–	–	–	46	49.8	0.57	2.01	50 (≈ 21.7 µg/mL)	log reduction at 0.33 µM (HSV-1; Table 3 sulfur compounds): 0.49; Inhibition of HSV-1 (HSV-1; in words): showed inhibition of HSV-1
O=c1c(O)cccc(SCc2ccccc2)c1O [compound 702]	–	–	–	–	–	25	3.23	5.79	0.56 (≈ 0.146 µg/mL)	IC50 (human RNaseH1; [12]): 31.7 µM; log reduction at 0.33 µM (HSV-1; Table 3 sulfur compounds): 0.13; MIC80 [1, 13]: ≤ 1 µM
O=c1c(O)c(S(=O)(=O)Cc2ccccc2)ccc(S(=O)(=O)Cc2ccccc2)c1O [compound 706]	–	–	–	–	73	51.4	–	0.59	49 (≈ 21.9 µg/mL)	–
COC(=O)[C@H](CCSC)NC(=O)c1cc(O)c(=O)c(O)cc1C [compound 796]	36 ± 24.1	83.3 ± 40.2	1.1 ± 0.1	18 (≈ 6.14 µg/mL)	–	–	–	–	–	–
Cc1cc(O)c(=O)c(O)cc1C(=O)N1CCN(C(=O)c2ccco2)CC1 [compound 800]	16.5 ± 11.4	46.3 ± 10.2	0.52 ± 0.2	26 (≈ 9.32 µg/mL)	–	–	–	–	–	–
CCCCCCSc1ccc(SCCCCCC)c(O)c(=O)c1O [compound 841]	–	–	–	–	7.8	10.7	–	–	–	log reduction at 1 µM (HSV-1; read-out: HSV-1 suppression 1 μM, Table 3 sulfur compounds): 4.99; log reduction at 5 µM (HSV-1; read-out: HSV-1 suppression 5 μM, Table 3 sulfur compounds): 4.77; MIC80 ([1]; 48 h, read-out: C. neoformans MIC80, Table 3 sulfur compounds, 48 h, 35° C.): 5 µM (≈ 1.85 µg/mL)
Cc1cc(O)c(=O)c(O)cc1C(=O)N1CCN(C(=O)c2cccnc2)CC1 [compound 918]	43.8 ± 10.7	127 ± 98.1	1.45 ± 0.4	50 (≈ 18.5 µg/mL)	–	–	–	–	–	–
Cc1cc(O)c(=O)c(O)cc1C(=O)N1CCN(c2ncccn2)CC1 [compound 1016]	24.6 ± 40	5.1 ± 2.7	0.9	18 (≈ 6.16 µg/mL)	–	–	–	–	–	–
Cc1cc(O)c(=O)c(O)cc1C(=O)N1CCN(C(c2ccc(F)cc2)c2ccc(F)cc2)CC1 [compound 1017]	3.9 ± 1.4	29.9 ± 10.7	5.6	6 (≈ 2.8 µg/mL)	–	–	–	–	–	EC50 (HBV replication; [6]): > 2 µM
Cc1cc(O)c(=O)c(O)cc1C(=O)N1CCN(Cc2c(F)cccc2Cl)CC1 [compound 1021]	10.4 ± 7.3	44 ± 46.2	3.05 ± 0.6	4.5 (≈ 1.83 µg/mL)	–	–	–	–	–	EC50 (HBV replication; [6]): > 2 µM
